pIC50: −log10 of the molar value. Values joined by “and” are separate entries in the source; they are usually repeats but may differ in a detail not shown here. Identical values can stand only once. Like-named read-outs stand apart in the source and are kept apart here.
Columns and labels:
Format in all cases: cell-based
[1] = test system: store-operated Ca^2+ entry in PLP-B lymphocytes; assay: Store-operated Ca2+ entry after thapsigargin depletion of ER Ca2+ stores in PLP-B lymphocytes; details: for inhibition at 0.1 µM / inhibition at 1 µM / inhibition at 10 µM / inhibition at 50 µM / inhibition at 100 µM / Effect on amplitude of SOCE peak: PLP-B lymphocytes, % of inhibition (−) or activation; for pIC50: SOCE in PLP-B lymphocytes, average of three assays, ±0.5 μM
Method: (§1) The effects of the molecules developed were tested on PLP-B lymphocytes. Store-operated Ca^2+ entry was induced by depletion of Endoplasmic Reticulum Ca^2+ stores (ER Ca^2+ stores) with thapsigargin (Tg) in a Ca^2+-free medium and measured following the addition of 1.8 mM of CaCl2) in the extracellular medium. The results are compared to the results obtained for known SOCE inhibitors SKF-96365, GSK-7975A, Synta 66.

[2] = test system: store-operated Ca^2+ entry in HEK 293; assay: Store-operated Ca2+ entry in HEK 293 cell line; details: for Effect on amplitude of SOCE peak: % of inhibition (−) or activation
Method: as §1
(§2) Then, effects of the molecule that gave the best results in this test (i.e., molecule 6αa) were assessed in two cancer cell lines, namely: HEK 293 and HEK 651 HS1 tumor cell lines.

[3] = test system: store-operated Ca^2+ entry in HEK 651 HS1; assay: Store-operated Ca2+ entry in HEK 651 HS1 cell line; details: for Effect on amplitude of SOCE peak: % of inhibition (−) or activation; for pIC50: average of three assays, ±0.5 μM
Method: as §1, §2

[4] = test system: SOCE in JOK B cells; assay: Intracellular calcium levels / SOCE in JOK B cells (Fura-2AM, FlexStation 3); details: for amplitude of SOCE: 5 and 20 μM, compared to control, irrespective of incubation time (5, 15, 30 minutes, 1 hour)
Method: Intracellular calcium levels were monitored at 37° C. using the FlexStation 3™ (Molecular Devices, Berkshire, UK), a fluorescence plate reader measuring time-resolved intracellular Ca^2+ concentration in a 96-well format with cells loaded with the dual-wavelength fluorescent calcium-sensitive dye Fura-2AM.
Intracellular Ca^2+ stores were depleted with 2 μM Thapsigargin (an inhibitor of ER SERCA pumps) under Ca^2+-free conditions to determine the magnitude of intracellular Ca^2+ release. Next, the cells were returned to Ca^2+-containing Hepes-buffered solution to measure SOCE. The magnitude of SOCE was estimated as the maximal values of normalized fluorescence ratio following Ca^2+ re-addition.

[5] = test system: JOK cells; assay: JOK cell viability and apoptosis assays (LIVE/DEAD, Annexin V-FITC/PI); details: JOK B cells (FIG. 7); 5 or 20 μM; treated for 48 hours
Method: Cell Viability Assays. JOK cells were treated with test compounds (GSK-7975-A, SKF-93365 and 6αa) or solvent for 48 hours. JOK cells viability was then assessed using LIVE/DEAD cell viability assays kit (Abcam). Differentially labeled live and dead cells with fluorescent dyes are analyzed by flow cytometry.
Apoptosis Assay. Apoptosis of JOK cells were determined by Annexin V-FITC/PI staining (Biolegend) using flow cytometry. The percentage of annexin V-FITC and propidium iodide-[…] cells were assessed using Kaluza 1.3.

[6] = test system: HUVEC cells; assay: HUVEC cell death (Annexin/Propidium Iodide, flow cytometry); details: HUVEC (FIG. 8); 5 or 20 μM; treated for 48 hours
Method: FIG. 8. In vitro Effects of 6αa, GSK-7975-A and SKF-93365 on HUVEC Cell Death. […] Cell death was analyzed by flow cytometry following Annexin/Propidium Iodide labeling. Percentages of living cells, necrotic cells and apoptotic cells submitted to GSK-7975A (A), SKF-93365 (B), and 6αa (DAD 3-473) (C) treatment were normalized to the DMSO treatment conditions. Histograms present the amounts of apoptotic cells (annexin/PI positive cells) detected in each experimental condition after treatment with GSK-7975A (D), SKF-93365 (E), and 6αa (DAD 3-473) (F). Data are expressed as mean±SEM of n observations (n=2). Data are analyzed with non parametric Mann Withney analysis, *P<0.05, **P<0.01 and ***P<0.001.

[7] = test system: PANC-1 cells; assay: PANC-1 cytotoxicity (Cell Tox green assay); details: 5 and 20 μM, 24 hours
Method: Analysis of Cell Proliferation. For PANC-1 cell proliferation and cell cytotoxicity measurements, […] were seeded in 96 well-plates in 100 μL of DMEM medium. Cells were incubated for 24 hours at 37° C. with 3 different SOCE inhibitors (GSK-7975-A, SKF-93365 and 6αa) at 2 different concentrations (5 and 20 μM) compared to DMSO and untreated cells. Cell proliferation was evaluated using the Cell Titer kit proliferation assay (Promega). Cytotoxicity was evaluated using the Cell Tox green cytotoxicity assay (Promega). All the kits were used following manufacturer recommendations and using a plate reader.

[8] = test system: JOK cells; assay: Migration of JOK cells through HUVEC in transwells; details: 5 or 20 μM
Method: Migration Protocol. Migration chambers (transwells) (Transwell 5.0 m polycarbonate membrane Costar) were coated overnight (37° C., 5% CO2) with 100 μL of fibronectine solution containing BSA (1 mg/ml) and LHC Basal Medium. Primary HUmbilical Vein Endothelial Cells (HUVEC) were seeded in each transwell (100 000/well) and cultured for 24 hours (37° C., 5% CO2). To evaluate B cell migration, JOK cells were added (300 000/well) to each transwell upper chamber containing RPMI 1640 medium (BioWest) containing 0.5% BSA and SDF1 (200 ng/ml) was added in the bottom chamber. Cells were cultures in the presence or absence of a test compound (GSK-7975-A, SKF-93365 and 6αa) or solvent. After 24 hours (37° C., 5% CO2), migrated cells were collected in the bottom chambers and counted by flow cytometry. The percentages of migration were calculated for each experimental collection.

COc1ccc(CCCOC(Cn2ccnc2)c2ccc(OC)cc2)cc1 (centres unmarked) [SKF-96365]
inhibition at 0.1 µM ([1]; Lymphocyte, DMSO control 100%, read-out: Effect on amplitude of SOCE Peak): 3.4% | inhibition at 0.1 µM ([1]; Lymphocyte, thapsigargin (Tg) peak, read-out: Effect on amplitude of Tg Peak): -2.4% | inhibition at 1 µM ([1]; Lymphocyte, 1 μM, DMSO control 100%, read-out: Effect on amplitude of SOCE Peak): 26.4% | inhibition at 1 µM ([1]; Lymphocyte, 1 μM, thapsigargin (Tg) peak, read-out: Effect on amplitude of Tg Peak): -6.5% | inhibition at 10 µM ([1]; Lymphocyte, 10 μM, DMSO control 100%, read-out: Effect on amplitude of SOCE Peak): 15.4% | inhibition at 10 µM ([1]; Lymphocyte, 10 μM, thapsigargin (Tg) peak, read-out: Effect on amplitude of Tg Peak): 6.6% | inhibition at 50 µM ([1]; Lymphocyte, 50 μM, DMSO control 100%, read-out: Effect on amplitude of SOCE Peak): 44.3% | inhibition at 50 µM ([1]; Lymphocyte, 50 μM, thapsigargin (Tg) peak, read-out: Effect on amplitude of Tg Peak): 11.1% | inhibition at 100 µM ([1]; Lymphocyte, 100 μM, DMSO control 100%, read-out: Effect on amplitude of SOCE Peak): 58.7% | inhibition at 100 µM ([1]; Lymphocyte, 100 μM, thapsigargin (Tg) peak, read-out: Effect on amplitude of Tg Peak): 8% | pIC50 ([1]; Lymphocyte): 4.22 | Effect on amplitude of SOCE peak ([2]; 0.1 μM): −25% | Effect on amplitude of SOCE peak ([2]; 1 μM): −21% | Effect on amplitude of SOCE peak ([2]; 5 μM): −23% | Effect on amplitude of SOCE peak ([2]; 10 μM): −4% | Effect on amplitude of SOCE peak ([2]; 50 μM): −33% | Effect on amplitude of SOCE peak ([3]; 0.1 μM): −8% | Effect on amplitude of SOCE peak ([3]; 1 μM): −6% | Effect on amplitude of SOCE peak ([3]; 5 μM): −9% | Effect on amplitude of SOCE peak ([3]; 10 μM): −17% | Effect on amplitude of SOCE peak ([3]; 50 μM): −63% | pIC50 [3]: 4.40 | amplitude of Ca2+ release from the endoplasmic stores [4]: not found to be significantly affected | amplitude of SOCE [4]: significantly reduces | apoptosis or necrosis of cells [5]: do not induce apoptosis or necrosis | apoptosis or necrosis of cells [6]: do not induce apoptosis or necrosis | cytotoxicity in cancer PANC-1 cells [7]: no cytotoxic effects

O=C(Nc1ccn(Cc2ccc(O)cc2C(F)(F)F)n1)c1c(F)cccc1F [GSK-7975A]
Effect on amplitude of SOCE peak ([1]; 1 μM, DMSO control 100%): 19.0% and 9.0% | Effect on amplitude of SOCE peak ([1]; 10 μM, DMSO control 100%): −9.0% | Effect on amplitude of SOCE peak ([1]; 50 μM, DMSO control 100%): −88.0% | Effect on amplitude of SOCE peak ([1]; 100 μM, DMSO control 100%): −94.0% | pIC50 [1]: 5.64 | Effect on amplitude of SOCE peak ([2]; 0.1 μM): −7% | Effect on amplitude of SOCE peak ([2]; 1 μM): −31% | Effect on amplitude of SOCE peak ([2]; 5 μM): −66% | Effect on amplitude of SOCE peak ([2]; 10 μM): −75% | Effect on amplitude of SOCE peak ([2]; 50 μM): −87% | pIC50 ([2]; average of three assays, ±0.5 μM): 5.70 | Effect on amplitude of SOCE peak ([3]; 0.1 μM): 0% | Effect on amplitude of SOCE peak ([3]; 1 μM): −2% | Effect on amplitude of SOCE peak ([3]; 5 μM): −19% | Effect on amplitude of SOCE peak ([3]; 10 μM): −22% | Effect on amplitude of SOCE peak ([3]; 50 μM): −72% | pIC50 [3]: 4.36 | amplitude of Ca2+ release from the endoplasmic stores [4]: not found to be significantly affected | amplitude of SOCE [4]: significantly reduces | apoptosis or necrosis of cells [5]: do not induce apoptosis or necrosis | apoptosis or necrosis of cells [6]: do not induce apoptosis or necrosis | transendothelial migration through HUVEC of JOK cells [8]: does not | cytotoxicity in cancer PANC-1 cells [7]: no cytotoxic effects

— US12686664B2, “SOCE inhibitors and therapeutic uses thereof” (Institut National de la Santé et de la Recherche Médicale …, priority 2020, dated 2026)
